Converted amounts (≈) assume the structure as drawn. Like-named read-outs stand apart in the source and are kept apart here. Non-standard residues stand in square brackets, D forms with d. Residues, ends and D or L forms follow the SMILES beside them.
How the values were obtained:
HEK293 cells = type: cell-based, human
Description: Cell viability assays were performed by using the CellTiter 96® AQueous Non-Radioactive Cell Proliferation Assay (Promega, United States), in which 3-(4,5-dimethylthiazol-2-yl)-5-(3-carboxymethoxyphenyl)-2-(4-sulfophenyl)-2H-tetrazolium salt (MTS) can be reduced to purple-colored formazan by intact cells. […] The test peptide was dissolved in water and filtered through a 0.2-μm filter. The peptide concentration was quantitated by the UV280 to make a 5,120 μg/mL stock solution and then serially diluted in serum-free DMEM. On the second day, the medium was replaced with 100 μL of serum-free DMEM containing different peptide concentrations and incubated for 1 or 24 h. Serum-free DMEM without peptide was used as a negative control and medium containing 1% Triton X-100 was used as a positive control. One milligram of MTS powder was dissolved in 0.5 mL of Dulbecco’s phosphate-buffered saline (DPBS). The MTS solution was mixed with one-twentieth of a phenazine methosulfate (PMS) solution ([…]). To each well, 20 μL of the MTS/PMS solution was added. After 3 h, the absorbance was measured with an Infinite M1000 pro (Tecan Austria GmbH, Austria) at a wavelength of 490 nm. Cell viability was calculated using the following equation. Cellviability=[(A-Ap)/(An-Ap)]×100% A is the UV490 of the peptide-treated sample An is the UV490 of the sample without peptide (negative control) Ap is the UV490 of the Triton-treated sample (positive control)

in vitro = in vitro ADME, rat; details: for half-life at 0.6 mg/mL: rat plasma, room temperature
Description: EDTA-treated rat whole blood was centrifuged at 4°C and 840 × g for 5 min, and then the blood cells were removed ([[…] et al., 2019]). The supernatant was placed in an Eppendorf tube and centrifuged at 4°C and 13,000 rpm for 10 min to remove lipids (white precipitate). The supernatant was filtered through a 0.2-μm filter. The peptide was dissolved in water and filtered through a 0.2-μm filter. The peptide concentration was quantified by the UV280 to make a 1 mg/mL stock solution. […] At the indicated time, the peptide was analyzed by HPLC with a C18 column using a linear gradient of 20-65% B over 15 min. Solution A: 5% acetonitrile plus 0.1% trifluoroacetic acid in water; solution B: 0.1% trifluoroacetic acid in acetonitrile.

A. baumannii ATCC 17978 = type: cell-based, Acinetobacter baumannii
Description: Following CLSI guideline M07-A11, single bacterial colonies of A. baumannii ATCC 17978 grown on Müller–Hinton agar (MHA) plates were picked and inoculated in 4 mL of Müller–Hinton broth (MHB) at 37°C and shaken at 180 rpm for 4∼6 h. The bacterial broth was diluted in the same medium to give a cell density of 1∼2 × 10^8 CFU/mL (OD600 = 0.38∼0.4 for A. baumannii) (Supplementary Figure 1; [Dillon et al., 2020]). Then, the broth was diluted 20-fold. Peptides were dissolved in water and filtered through a 0.2-μm filter to make a stock solution. The peptide concentration was quantified by the UV280. Then, the peptide solution was serially diluted in MHB to final peptide concentrations of 1, 2, 4, 8, 16, and 32 μg/mL. One hundred microliters of serially diluted peptide and 10 μL of bacterial culture were mixed in a 96-well polystyrene plate. Each well contained approximately 5 × 10^5 CFU/mL. The positive control was a mixture of 100 μL of MHB and 10 μL of the bacterial culture. The negative control was 110 μL of MHB. The plates were incubated at 37°C without shaking. […] The bacterium-peptide mixtures (the mixture without visible growth and the mixture containing a two-fold […] peptide concentration than the mixture without growth), positive control, and negative control (3 μL each) were spotted on an MHA plate and incubated at 37°C for 24 h. The MBC was determined as the lowest peptide concentration at which no colonies formed.
The MIC and MBC of our designed peptides against A. baumannii were obtained by using the broth microdilution method in the CLSI protocol. The bacterial cell number was carefully counted, and a final cell density of 5 × 10^5 CFU/mL in each well was used in the MIC test (Supplementary Figure 1). The minimal peptide concentration at which no bacterial growth was observed was taken as the MIC value. The culture after peptide treatment was spotted on an MHA plate, and the peptide concentration that could kill all the bacteria was defined as the MBC. The MIC/MBC and hemolytic activity of these peptides are shown and compared in Figure 1.

Hemolytic assay = type: cell-based, rat; details: rat red blood cells, 256 μg/mL peptide, 37°C 45 min; read-out: Hemolysis (%) at 256 μg/mL
Description: The blood cells were washed three times with PBS, where the volume of PBS was the same as that of the original blood, by gently turning the centrifuge tube upside down. After washing, ten microliters of blood cells were diluted 2,000-fold in PBS to count the cells. Finally, red blood cells were diluted to 5 × 10^8 cells/mL in PBS. Peptides were dissolved in water and filtered through a 0.2-μm filter to make a stock solution. The peptide concentration was quantitated by the UV280. The peptide solution was diluted in PBS to different concentrations (five times the tested concentrations). Twenty microliters of the peptide in PBS was mixed with 80 μL of red blood cell solution in a 96-well plate (V-bottom). The final peptide concentration was 16–256 μg/mL. In the positive control group, 20 μL of 5% Triton X-100 was added to the red blood cell solution for a final Triton X-100 concentration of 1%. For the negative control group, 20 μL of PBS solution was added. The 96-well plate was incubated at 37°C for 45 min. After centrifuging the 96-well plate at 1,500 × g for 5 min, 30 μL of the supernatant was mixed with 100 μL of deionized water in a 96-well plate (flat bottom). The concentration of heme in each well was measured by the UV405 using an Infinite M1000 pro (Tecan Austria GmbH, Austria). The hemolytic activity was calculated using the following formula. Hemolyticactivity=[(F-F0)/(Ft-F0)]×100% F is the UV405 of the peptide-treated sample F0 is the UV405 of the sample without peptide (negative control) Ft is the UV405 of the Triton-treated sample (positive control)

[1] = tested on: carbapenem-resistant A. baumannii; set-up: method as in Huang et al., 2012; details: intraperitoneal injection twice a day for 3 days; ref Huang et al., 2012; cited from earlier work
[2] = tested on: 20 strains of A. baumannii; set-up: method as in Huang et al., 2012; details: ref Huang et al., 2012; cited from earlier work
A. baumannii 19606 = tested on: A. baumannii 19606; set-up: method as in Feng et al., 2013; details: ref Feng et al., 2013; cited from earlier work
A. baumannii = tested on: A. baumannii; set-up: method as in Sato et al., 2018; details: ref Sato et al., 2018; cited from earlier work

Row | Compound | HEK293 IC50 (HEK293 cells; 1 h) [µg/mL] | HEK293 IC50 (HEK293 cells; 24 h) [µg/mL] | half-life at 0.6 mg/mL (in vitro; rat, plasma) [h] | MBC A. baumannii 17978 (A. baumannii ATCC 17978; ATCC 17978, 24 h) | hemolysis at 45 min, 256 μg/mL (Hemolytic assay) [%] | further results
1 | CC(=O)N[C@@H](Cc1c[nH]c2ccccc12)C(=O)N[C@H](CCCCN)C(=O)N[C@H](CCCCN)C(=O)N[C@H](CC(C)C)C(=O)N[C@H](CCCCN)C(=O)N[C@H](CCCCN)C(=O)N[C@H](CC(C)C)C(=O)N[C@H](CC(C)C)C(=O)N[C@H](CCCCN)C(=O)N[C@H](CCCCN)C(=O)N[C@H](CC(C)C)C(=O)N[C@H](CCCCN)C(=O)N[C@H](CCCCN)C(=O)N[C@H](CC(C)C)C(N)=O [pepdD2, Ac-Wkklkkllkklkkl-NH2] (Ac-W[dK][dK][dL][dK][dK][dL][dL][dK][dK][dL][dK][dK][dL]-NH2) | 40.2 | 20.6 | 290 | 8 µg/mL (≈ 4.36 µM) | 2.9 | Extension of peptide half-life in plasma (in vitro): more than 12 fold; remaining at 72 h, 0.6 mg/mL (in vitro; rat, plasma): ~90%
2 | Ac-WKKLKKLLKKL-NH2 [pepD3] | 49.5 | 68.1 | 19.1 | 8 µg/mL | 3.15 | 
3 | Ac-WKKLKKLLKKLKKL-NH2 [pepD2] | 29.1 | 37.3 | 23.1 | 8/8 μg/mL | 9.6 | MIC A. baumannii 17978 (A. baumannii ATCC 17978; MHB, 20 h, 5 × 10^5 CFU/mL): 8 µg/mL; MBC A. baumannii 17978 (A. baumannii ATCC 17978; spotted on MHA plate, 24 h): 8 µg/mL
4 | C(LLKK)2C |  |  |  |  |  | Mice rescued [1]: rescued half of the mice; MIC against 20 strains of A. baumannii [2]: 40 to 75 µg/mL
5 | LL-37: natural human antimicrobial peptide |  |  |  |  |  | MIC against A. baumannii 19606 (A. baumannii 19606): 16 µg/mL
6 | colistin sulfate |  |  |  |  |  | MIC against A. baumannii (A. baumannii): 2 µg/mL
